Reference: patent US7671085B2, “Non-steroidal farnesoid X receptor modulators and methods for the use thereof” (The Salk Institute for Biological Studies, priority 2002, dated 2010)

What was measured:
[1] = molecular target: T1, FXR (Homo sapiens, UniProt Q96RI1); assay: cell-based FXR transcription assay, FXR responsive promoter linked to luciferase reporter; conditions: cell-based FXR reporter assay; footnote a not given
T1 construct: using a full length FXR on a natural response element; expressed in transfected cells
T1 sequence (Q96RI1 1-486): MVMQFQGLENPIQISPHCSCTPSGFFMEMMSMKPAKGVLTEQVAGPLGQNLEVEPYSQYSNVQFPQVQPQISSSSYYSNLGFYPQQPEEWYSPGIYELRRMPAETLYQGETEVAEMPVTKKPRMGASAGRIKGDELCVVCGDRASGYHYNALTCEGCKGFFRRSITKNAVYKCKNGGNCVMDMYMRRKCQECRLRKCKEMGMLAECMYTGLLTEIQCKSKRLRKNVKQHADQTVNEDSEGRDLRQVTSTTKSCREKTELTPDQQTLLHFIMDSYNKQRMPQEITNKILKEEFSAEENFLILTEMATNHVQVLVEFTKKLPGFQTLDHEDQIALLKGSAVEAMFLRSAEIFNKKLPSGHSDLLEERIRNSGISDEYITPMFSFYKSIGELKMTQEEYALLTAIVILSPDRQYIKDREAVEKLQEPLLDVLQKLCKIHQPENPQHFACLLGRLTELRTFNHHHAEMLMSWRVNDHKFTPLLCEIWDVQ
Summary of the method: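 Cells co-transfected with full-length FXR and a luciferase reporter driven by a natural response element on a minimal promoter. Compound exposure ≈10 μM for 18 h before washing and luciferase read-out, in 384-well format, with CDCA as reference activator. EC50 derived from transcriptional activity.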

[2] = molecular target: T2, SXR (Homo sapiens, UniProt O75469); assay: nuclear receptor panel: SXR activation; type: cell-based
T2 sequence (O75469 1-434): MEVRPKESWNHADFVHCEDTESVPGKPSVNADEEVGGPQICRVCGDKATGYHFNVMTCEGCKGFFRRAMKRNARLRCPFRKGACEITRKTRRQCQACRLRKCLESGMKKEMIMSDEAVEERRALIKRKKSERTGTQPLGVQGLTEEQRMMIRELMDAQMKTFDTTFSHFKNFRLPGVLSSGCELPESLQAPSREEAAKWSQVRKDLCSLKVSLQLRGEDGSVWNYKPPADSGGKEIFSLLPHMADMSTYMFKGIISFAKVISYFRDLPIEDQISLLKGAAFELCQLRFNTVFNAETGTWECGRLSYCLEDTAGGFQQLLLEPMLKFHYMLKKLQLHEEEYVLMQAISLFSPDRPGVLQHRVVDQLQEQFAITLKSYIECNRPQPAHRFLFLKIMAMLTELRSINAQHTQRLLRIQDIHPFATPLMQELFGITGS

[3] = molecular target: T3, mouse FXR and human RXR (Mus musculus, UniProt Q60641); assay: CV-1 transient transfection reporter gene assay, TK minimal promoter with ECRE or ER-8 FXRE; type: cell-based; conditions: CV-1 cells
T3 construct: expressed in transfected cells; host or cells: CV-1 cells
T3 sequence (Q60641 1-488): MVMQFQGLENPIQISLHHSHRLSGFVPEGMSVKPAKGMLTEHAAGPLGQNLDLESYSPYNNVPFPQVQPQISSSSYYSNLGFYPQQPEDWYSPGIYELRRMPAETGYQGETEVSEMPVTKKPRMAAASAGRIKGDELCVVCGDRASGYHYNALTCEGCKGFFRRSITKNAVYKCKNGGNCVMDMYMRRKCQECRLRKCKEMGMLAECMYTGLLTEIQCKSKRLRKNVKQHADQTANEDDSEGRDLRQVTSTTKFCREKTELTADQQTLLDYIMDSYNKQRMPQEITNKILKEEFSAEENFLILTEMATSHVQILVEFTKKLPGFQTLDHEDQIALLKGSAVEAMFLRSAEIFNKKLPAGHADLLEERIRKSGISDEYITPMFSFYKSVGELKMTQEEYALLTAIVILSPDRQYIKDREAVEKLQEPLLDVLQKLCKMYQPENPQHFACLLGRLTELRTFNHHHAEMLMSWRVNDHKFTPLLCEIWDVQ
T3 sequence (P19793 1-462 partner): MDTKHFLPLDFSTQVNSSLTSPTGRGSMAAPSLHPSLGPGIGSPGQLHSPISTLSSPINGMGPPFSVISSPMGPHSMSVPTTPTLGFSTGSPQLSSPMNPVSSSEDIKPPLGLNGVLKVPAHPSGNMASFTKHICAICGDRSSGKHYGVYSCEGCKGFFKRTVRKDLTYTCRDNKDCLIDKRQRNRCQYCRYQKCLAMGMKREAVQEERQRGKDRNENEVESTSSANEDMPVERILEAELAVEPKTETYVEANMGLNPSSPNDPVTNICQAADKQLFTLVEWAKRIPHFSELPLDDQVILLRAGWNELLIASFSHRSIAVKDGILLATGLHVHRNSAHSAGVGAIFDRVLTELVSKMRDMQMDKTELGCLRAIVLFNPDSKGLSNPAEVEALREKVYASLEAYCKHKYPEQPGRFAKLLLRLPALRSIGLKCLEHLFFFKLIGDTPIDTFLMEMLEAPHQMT
Method: The ability of these compounds to activate the receptor in a number of different cell-based reporter gene assays was then determined. […] CV-1 cells were transiently transfected with an expression plasmid for mouse FXR and human RXR with a thymidine kinase (TK) minimal promoter reporter vector containing either no copies or six copies of the ecdysone response element (ECRE), a well-characterized FXR response element (FXRE). In addition, two copies of the recently identified FXRE everted repeat separated by 8 nucleotides (ER-8) was also studied (see, for example, Laffitte et al. (2000). Identification of the DNA binding specificity and potential target genes for the farnesoid X-activated receptor. J Biol Chem. 275(14), 10638-47; Kast et al. (2002). Regulation of multidrug resistance-associated protein 2 (ABCC2) by the nuclear receptors pregnane X receptor, farnesoid X-activated receptor, and constitutive androstane receptor. J Biol Chem. 277(4), 2908-15).

[4] = system: FXR (IBABP, PLTP and MRP-2 promoters); assay: transient transfection cell-based assay with natural promoters of FXR targets (IBABP, PLTP, MRP-2)
Source text: For this study, the following gene promoters were used: intestinal bile acid binding protein (IBABP; see, for example, Grober et al. (1999). Identification of a bile acid-responsive element in the human ileal bile acid-binding protein gene. Involvement of the farnesoid X receptor/9-cis-retinoic acid receptor heterodimer. J Biol Chem. 274(42), 29749-54), phospholipid transfer protein (PLTP) (Urizar et al (2000). The farnesoid X-activated receptor mediates bile acid activation of phospholipid transfer protein gene expression. J Biol Chem. 275(50), 39313-7) and multidrug resistance related protein 2 (MRP-2) (Kast et al. (2002), supra), which are all well characterized targets of FXR. The natural promoters of both the IBABP and PLTP genes contain one copy of an inverted repeat with a one base spacing (IR-1) while MRP-2 contains an ER-8 element. […] The most robust activation (28-fold) was seen on the IBABP promoter. Less robust (2-3 fold) but specific activation was observed on the PLTP and MRP-2 promoters.

[5] = system: IBABP mRNA in HT29-FXRFL cells; assay: Northern blot of IBABP mRNA in HT29 stable cell lines; type: cell-based, Human
Method: (§1) HepG2 or HT29-derived cell lines were typically cultured in medium containing superstripped FBS for 24 hr before the addition of a ligand or DMSO (vehicle) for an additional 24-48 hr. Total RNA was isolated using TRIzol reagent and was resolved (10 μg/lane) on a 1% agarose, 2.2 M formaldehyde gel, transferred to a nylon membrane (Hybond N^+; Amersham Biosciences, Inc.), and cross-linked to the membrane with UV light.
(§2) cDNA probes were radiolabeled with [α-^32P]dCTP using the highprime labeling kit (Amersham Biosciences, Inc.). Membranes were hybridized using the QuikHyb hybridization solution (Stratagene, La Jolla, Calif.) according to the manufacturer's protocol. Blots were normalized for variations of RNA loading by hybridization to a control probe, either, 18 S ribosomal cDNA, or the ribosomal protein 36B4. The RNA levels were quantitated using a PhosphorImager (ImageQuant software; Molecular Dynamics, Inc., Sunnyvale, Calif.) in addition to being exposed to X-ray film.
Human colon cells HT29 (FXR null until differentiated) were infected with retroviral vectors that expressed either FXR constructs and the puromycin-resistant gene or the puromycin-resistant gene alone. Puromycin resistant cells were isolated and pooled cell populations were propagated that harbored either the vector alone (HT29-BABE), overexpressed FXR full length (HT29-FXRFL), a non-functional FXR truncated at the AF2 region (HT29-FXR-AF2), or a constitutively active FXR that has the VP16 activation domain fused N-terminal of the protein (HT29-VP16-FXR). Confirmation of the successful establishment of the different stable cell lines was established via northern blot analysis of FXR message levels in the cells.
These observations verify the usefulness of this colon cell model system for studying the induction of FXR target genes.
The ability of the novel compounds identified herein to induce IBABP gene expression in this cell system was also examined. Total RNA from HT29 stable cells treated overnight with fexaramine, fexarine and fexarene was probed for IBABP gene expression.

[6] = system: FXR target genes SHP, MRP-2, BSEP and PLTP; assay: Northern blot of FXR target genes in HEPG2-FXR cells; type: cell-based; conditions: SHP, MRP-2, BSEP, PLTP
Method: as §1, §2
Total RNA was isolated and the expression of the FXR target genes SHP, MRP-2, BSEP and PLTP was measured by Northern blot analysis. […]

Structure (SMILES) | RE^a [1] | SXR activation, in words [2] | concentration at which maximal activity is achieved ([3]; ECRE and ER-8 reporters) | activity on the minimal TK promoter ([3]; no FXRE copies) | activation of ECRE FXRE reporter ([3]; six copies of ECRE, TK minimal promoter) | activation of ER-8 FXRE reporter ([3]; two copies of ER-8, TK minimal promoter) | concentration of maximum efficacy [4] | induction of IBABP mRNA, in words ([5]; HT29-BABE or HT29-FXR-AF2 cell lines) | induction of IBABP mRNA, in words ([5]; HT29-FXRFL cells) | concentration for maximal induction of IBABP mRNA ([5]; HT29-FXRFL cells, overnight treatment) | induction of IBABP mRNA, in words ([5]; HT29-VP16-FXR cells (constitutive expression)) | induction of FXR target genes, in words [6]
COC(=O)/C=C/c1cccc(N(Cc2ccc3c(c2OC)OC(C)(C)C2C3C2(Cl)Cl)C(=O)C2CCCCC2)c1 (stereo not drawn) [Compound 149] | 0.50 | potently activated SXR |  |  |  |  |  |  |  |  |  | 
CC(C)c1onc(-c2c(Cl)cccc2Cl)c1COc1ccc(/C=C/c2cccc(C(=O)O)c2)c(Cl)c1 [GW4064, reference compound] |  |  | 1 µM | less than 2 fold | 100 fold | 4 fold | 1 µM | No induction of IBABP mRNA levels | robust concentration dependent induction of IBABP mRNA | 1 µM | super-induced | slightly better induction of the FXR target genes PLTP and SHP
